US20160074380A1, “Treatment Of Neurodegenerative Diseases With Combination Of Laquinimod And Fingolimod” (TEVA PHARMACEUTICAL INDUSTRIES LTD., priority 2014, published 2016)
Several values for one entry are separate records, joined by “and”; a condition that tells them apart may be missing. Equal values may be shown once. Read-outs that look alike come from different tables or passages of the source.

Columns and labels:
reactive astrocytes [1] = experiment: IL-12p70 concentration in conditioned media from reactive astrocytes (cytometry); type: cell-based, mice; conditions: LPS+IFNγ
Experimental: (§1) Mice mixed glial cells were cultured as described by McCarthy et al., 1980. Primary mice glial cells were prepared from the cortical of newborn Swiss mice (1 day). Briefly, meninges and blood vessels of the mice cortex were removed and placed in ice-cold medium of L15 containing 2% of PS and 1% of BSA. Tissues were dissociated with 0.25% trypsin-EDTA at 37° C. for 10 min. Cells were then submitted to a supplementary incubation of 15 min at 37° C. in presence of deoxyribonuclease I (final concentration of 0.5 mg/mL). Cells were then pelleted (5 min at 1200 rpm) and trypsinization was stopped by adding DMEM supplemented with 10% FCS, 1 mM of Na/pyruvate (PanBiotech, ref: P04-43100, batch: 3470914) and 2% PS. Cells suspension was mechanically dissociated and filtered through 40 μm diameter nylon meshes (BD Falcon, Ref: 352340). The cells were collected by centrifugation at 1200 rpm/min for 10 min, re-suspended in culture medium and then plated in culture flasks (Dutscher, ref: 690175). Cells were seeded at a density of 1.25×10^5 cells/cm2 and cultured in 5% CO2 at 37° C. Medium was changed three times per week.
(§2) Purification of astrocytes cells was done as described by Kim et al., 2006. After 14 days, the flasks were shaken on a rotary shaker at 200 rpm for 3 h. The resulting cell suspension rich in microglia was removed. Cells remaining in the flasks from which microglia had been harvested correspond to astrocytes at a purity of about 90%. Astrocytes were cultured in DMEM supplemented with 10% FCS, 1 mM of Na/pyruvate and 2% at 5% CO2 and 37° C. in flasks of 25 cm2.
(§3) When reaching confluence, primary astroglial cells were first incubated for 2 hours with Fingolimod (1 nM, 10 nM) or Laquinimod (1 nM, 10 nM, 100 nM, 1 μM, 10 μM) alone or in co-incubation or control medium.
(§4) At the end of 2 hours treatment with test compounds, astrocyte culture was activated with serum-free DMEM containing LPS (100 ng/mL; Sigma, Serotype 026:B6, ref: L2654; batch: 123M4052V) and IFNγ (10 ng/mL; Peprotech; ref: 315-05; batch: 061398 L0513) for 6 hours (Kim and Lee, 2013; Shu et al., 2014; Gresa-Arribas et al., 2012) in absence or presence of test compounds.
(§5) To obtain LPS/INFγ free conditioned media (CM), after 6 hours, cells were washed twice with DMEM and medium was replaced with DMEM supplemented with B27 (2%), L-glutamine (2 mM), PS solution (2%). LCM was collected 24 hrs after. For control, cells were incubated with medium not containing LPS/INFγ. […]

reactive astrocytes [2] = experiment: TNFα concentration in conditioned media from reactive astrocytes (cytometry); type: cell-based, mice
Experimental: as §1, §2, §3, §4, §5

mouse primary microglia = experiment: Pro-inflammatory cytokine production in mouse primary microglia; type: cell-based
[3] = tested on: peripheral lymphocyte counts; experiment: Peripheral lymphocyte counts with fingolimod; type: in vivo; conditions: S1P receptor-mediated
cuprizone model = conditions: Slovic, 2012, Kim, 2011; cited from earlier work
oligodendrocytes [4] = conditions: inflammatory insults; Rochelle, 2007; cited from earlier work
[5] = tested on: mouse-cultured cortical cells; conditions: pretreatment; Di Menna, 2013; cited from earlier work
lysolecithin model = experiment: Lysolecithin-induced demyelination model; type: in vivo
established EAE = experiment: Established EAE; type: in vivo
oligodendrocytes [6] = experiment: Oligodendrocyte survival under inflammatory insults; type: cell-based
human astrocytes = experiment: Human astrocyte activation and cytokine secretion in vitro; type: cell-based
Description: The effect of laquinimod on human astrocyte activation, as investigated in another study, is detailed in FIGS. 9 and 10. […] In unstimulated cells, the NF-κB dimers are sequestered in the cytoplasm by a family of inhibitors, called IκBs (Inhibitor of κB). […] Activation of the NF-κB is initiated by the signal-induced degradation of IκB proteins. This occurs primarily via activation of a kinase called the IκB kinase (IKK). When activated by signals, usually coming from the outside of the cell, the IκB kinase phosphorylates two serine residues located in an IκB regulatory domain. When phosphorylated, the IκB inhibitor molecules are modified by a process called ubiquitination, which than leads them to be degraded by a cell structure called the proteasome. With the degradation of IκB, the NF-κB complex is then freed to enter the nucleus where it can ‘turn on’ the expression of specific genes that have DNA-binding sites for NF-κB nearby. The activation of these genes by NF-κB then leads to the given physiological response, for example, an inflammatory or immune response.

NF-κB pathway = experiment: p65 translocation into the astrocyte nucleus in vivo
microglia/macrophages = experiment: Microglial activation in EAE-afflicted mice; type: in vivo; conditions: spinal cord of EAE-afflicted mice
Description: Laquinimod inhibited microglial activation in EAE in mice. Transcripts encoding markers of activation of microglia/macrophages were increased in the spinal cord of EAE-afflicted mice and decreased in laquinimod-treated animals, as presented in FIG. 15.

[7] = Penetration of intact and disrupted Blood Brain Barrier; type: in vivo, mice; conditions: for Kp: mouse, CNS tissue relative to blood, read-out: CNS tissue level, % of the blood concentration
Description: In another study, laquinimod, as a small molecule, penetrated both intact and disrupted Blood Brain Barrier (BBB). In view of FIG. 17, CNS tissue level of laquinimod was 7-8% of the blood concentration in healthy mice and 13% in EAE mice when the BBB was disrupted. Further, 90% of the drug in cerebrospinal fluid (CSF) was active, or free, due to low protein binding and expected also in brain interstitial fluids. Thus, laquinimod targeted the entire brain and not only the lesions.

[8] = Mus musculus, Astrocyte, 1 nM, read-out: % inhibition of IL-12p70 release
[9] = Mus musculus, Astrocyte, 10 nM, read-out: % inhibition of IL-12p70 release
[10] = Mus musculus, Astrocyte, 1 nM, LPS+IFNγ, read-out: % inhibition of TNFα release
[11] = Mus musculus, Astrocyte, 10 nM, LPS+IFNγ, read-out: % inhibition of TNFα release

Molecule `CCCCCCCCc1ccc(CCC(N)(CO)CO)cc1` [Fingolimod] has an IL-12p70 content (reactive astrocytes [1]; 1 nM) of 6.15 pg/mL, an IL-12p70 content (reactive astrocytes [1]; 10 nM) of 4.25 pg/mL and an inhibition at 0.001 µM (reactive astrocytes [1]; [8]) of 38.1%. For the same molecule, the inhibition at 0.01 µM (reactive astrocytes [1]; [9]) was 57.2%, the “effect on TNFα release” value (reactive astrocytes [2]; 1 nM and 10 nM) was “didn't show any significant effect” and the TNFa content (reactive astrocytes [2]; 1 nM, LPS+IFNγ) was 3170.03 pg/mL. For the same molecule, the TNFa content (reactive astrocytes [2]; 10 nM, LPS+IFNγ) was 3053.66 pg/mL, the inhibition at 0.001 µM (reactive astrocytes [2]; [10]) was 3.4% and the inhibition at 0.01 µM (reactive astrocytes [2]; [11]) was 6.9%. The “microglial production of pro-inflammatory cytokine” value (mouse primary microglia) was “inhibited”, the lymphocyte count reduction [3] was “dose dependent” and the re-myelination (cuprizone model) was “not conclusive”. For the same molecule, the oligodendrocyte survival (oligodendrocytes [4]) was “did protect oligodendrocytes” and the “protection of neurons against NMDA toxicity” value [5] was “protected neurons against NMDA toxicity”.

`CCN(C(=O)c1c(O)c2c(Cl)cccc2n(C)c1=O)c1ccccc1` [Laquinimod] showed an IL-12p70 content (reactive astrocytes [1]; 1 nM) of 6.53 pg/mL, an IL-12p70 content (reactive astrocytes [1]; 10 nM) of 6.29 pg/mL and an IL-12p70 content (reactive astrocytes [1]; 100 nM) of 3.84 pg/mL. It also gave an IL-12p70 content (reactive astrocytes [1]; 1 μM) of 2.55 pg/mL, an inhibition at 0.001 µM (reactive astrocytes [1]; [8]) of 34.3% and an inhibition at 0.01 µM (reactive astrocytes [1]; [9]) of 36.7%. For the same molecule, the inhibition at 0.1 µM (reactive astrocytes [1]; Mus musculus, Astrocyte, 100 nM, read-out: % inhibition of IL-12p70 release) was 61.4%, the inhibition at 1 µM (reactive astrocytes [1]; Mus musculus, Astrocyte, 1 μM, read-out: % inhibition of IL-12p70 release) was 74.3% and the TNFa content (reactive astrocytes [2]; 1 nM, LPS+IFNγ) was 3257.64 pg/mL. For the same molecule, the TNFa content (reactive astrocytes [2]; 10 nM, LPS+IFNγ) was 2440.81 pg/mL, the TNFa content (reactive astrocytes [2]; 100 nM, LPS+IFNγ) was 2464 pg/mL and the TNFa content (reactive astrocytes [2]; 1 μM, LPS+IFNγ) was 2769 pg/mL and 2769.46 pg/mL. It also gave an inhibition at 0.001 µM (reactive astrocytes [2]; [10]) of 0.7%, an inhibition at 0.01 µM (reactive astrocytes [2]; [11]) of 25.6% and an inhibition at 0.1 µM (reactive astrocytes [2]; Mus musculus, Astrocyte, 100 nM, LPS+IFNγ, read-out: % inhibition of TNFα release) of 24.9%. The inhibition at 1 µM (reactive astrocytes [2]; Mus musculus, Astrocyte, 1 μM, LPS+IFNγ, read-out: % inhibition of TNFα release) was 15.6%, the lysolecithin-induced demyelination (lysolecithin model) was “no effect” and the clinical disease (established EAE) was “ameliorates clinical disease”. For the same molecule, the “expansion of pre-existing lesions” value (established EAE) was “inhibits further expansion of pre-existing lesions”, the oligodendrocyte survival (oligodendrocytes [6]) was “does not protect oligodendrocytes” and the pro-inflammatory cytokine secretion (human astrocytes; human astrocytes in vitro) was “down regulates”. The astrocyte activation (human astrocytes; via the NF-κB pathway) was “interferes with astrocyte activation”, the “astrocyte activation (p65 translocation into the astrocyte nucleus)” value (NF-κB pathway) was “significantly reduced astrocyte activation” and the “transcripts encoding markers of activation of microglia/macrophages” value (microglia/macrophages) was “decreased”. For the same molecule, the “active, or free, drug in cerebrospinal fluid (CSF)” value ([7]; low protein binding) was 90%, the Kp ([7]; EAE mice, BBB disrupted) was 0.13 and the Kp ([7]; healthy mice) was 0.07 to 0.08.
